This passage reports Ki results from patent US6835752B2, “Carboxylic acid derivatives, processes for the preparation thereof and pharmaceutical agents comprising the same as active ingredient” (Ono Pharmaceutical Co., Ltd., priority 2000, dated 2004).

Common to all, as to details: CHO cell membrane fraction, competition with [3H]-PGE2 2.5 nM
For one test, the target named is T1, mouse EP1 receptor (Mus musculus, UniProt P35375).
T1 construct: expressed in transfected cells; host or cells: CHO cells
T1 sequence (P35375 1-405): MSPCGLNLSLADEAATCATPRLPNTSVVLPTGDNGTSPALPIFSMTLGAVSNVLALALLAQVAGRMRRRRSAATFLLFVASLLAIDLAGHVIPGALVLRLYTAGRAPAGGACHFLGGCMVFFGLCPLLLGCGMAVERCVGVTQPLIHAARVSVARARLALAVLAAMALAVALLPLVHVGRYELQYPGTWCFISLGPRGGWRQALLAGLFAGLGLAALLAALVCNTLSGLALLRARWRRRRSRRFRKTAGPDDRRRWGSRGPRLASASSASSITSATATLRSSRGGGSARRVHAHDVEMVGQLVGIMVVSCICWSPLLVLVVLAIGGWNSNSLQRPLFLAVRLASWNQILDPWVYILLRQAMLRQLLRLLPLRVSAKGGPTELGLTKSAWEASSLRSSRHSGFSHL
Put plainly: Binding assay using cell expressing the prostanoid receptor subtypes (EP1). As for the experimental part: (§1) (i) Binding Assay Using Cell Expressing the Prostanoid Receptor Subtypes
(§2) The preparation of membrane fraction was carried out according to the method of Sugimoto et al [J. Biol. Chemical, 267, 6463-6466 (1992)], using CHO cell expressing prostanoid receptor subtypes (mouse EP1, EP2, EP3α, and EP4).
(§3) The standard assay mixture containing membrane fraction (50 μL), [^3H]—PGE2 in a final volume of 150 μL was incubated for 1 hour at room temperature. The reaction was terminated by addition of 3 mL of ice-cold buffer. The mixture was rapidly filtered through a glass filter (GF/B) under reduced pressure. The radioactivities associated with the filters were measured by liquid scintillation counter.
(§4) Kd and Bmax values were determined from Scatchard plots [Ann. N. Y. Acad. Sci. 51, 660(1949)]. Non-specific binding was determined as the amount bound in the presence of an excess (2.5 μM of unlabeled PGE2. In the experiment for competition of specific [^3H]—PGE2 binding assay, [^3H]—PGE2, was added at a concentration of 2.5 nM and a test compound of the present invention was added at various concentrations. The following buffer was used in all reactions.
(§5) Buffer: 10 mM potassium phosphate (pH 6.0), 1 mM EDTA, 10 mM MgCl2, 0.1 M NaCl.
(§6) The inhibition constant (Ki) (μM) of each compound was calculated by the following equation.

The target in a further test is T2, mouse EP2 receptor (Mus musculus, UniProt Q62053).
T2 construct: expressed in transfected cells; host or cells: CHO cells
T2 sequence (Q62053 whole entry): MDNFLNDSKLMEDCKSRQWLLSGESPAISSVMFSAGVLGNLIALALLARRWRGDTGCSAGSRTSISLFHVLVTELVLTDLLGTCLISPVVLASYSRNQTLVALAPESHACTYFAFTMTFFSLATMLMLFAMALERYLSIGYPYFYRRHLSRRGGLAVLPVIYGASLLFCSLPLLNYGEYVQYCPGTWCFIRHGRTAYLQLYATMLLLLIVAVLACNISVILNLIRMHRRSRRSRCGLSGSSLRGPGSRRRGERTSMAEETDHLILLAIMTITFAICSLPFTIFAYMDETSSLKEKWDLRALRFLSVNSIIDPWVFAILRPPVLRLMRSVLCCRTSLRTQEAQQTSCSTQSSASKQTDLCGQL
Kind of test: Binding assay using cell expressing the prostanoid receptor subtypes (EP2). As for the experimental part:
as §1, §2, §3, §4, §5, §6

Another test addresses T3, mouse EP3α receptor (Mus musculus, UniProt P30557).
T3 construct: expressed in transfected cells; host or cells: CHO cells
T3 sequence (P30557 1-365): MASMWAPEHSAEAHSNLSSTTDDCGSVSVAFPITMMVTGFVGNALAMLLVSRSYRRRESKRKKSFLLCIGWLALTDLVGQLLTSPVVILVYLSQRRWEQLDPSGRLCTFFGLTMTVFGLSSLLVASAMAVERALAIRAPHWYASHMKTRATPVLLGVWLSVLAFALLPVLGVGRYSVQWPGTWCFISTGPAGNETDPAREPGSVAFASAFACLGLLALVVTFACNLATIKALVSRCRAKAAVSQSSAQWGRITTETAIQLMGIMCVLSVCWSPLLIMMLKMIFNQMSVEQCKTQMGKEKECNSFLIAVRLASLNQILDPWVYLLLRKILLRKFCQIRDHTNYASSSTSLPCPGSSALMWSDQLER
Kind of test: Binding assay using cell expressing the prostanoid receptor subtypes (EP3). How it is done:
as §1, §2, §3, §4, §5, §6

The next test addresses T4, mouse EP4 receptor (Mus musculus, UniProt P32240).
T4 construct: expressed in transfected cells; host or cells: CHO cells
Kind of test: Binding assay using cell expressing the prostanoid receptor subtypes (EP4). How it is done:
as §1, §2, §3, §4, §5, §6

Bounds are passed on as bounds.

T4 sequence (P32240 whole entry): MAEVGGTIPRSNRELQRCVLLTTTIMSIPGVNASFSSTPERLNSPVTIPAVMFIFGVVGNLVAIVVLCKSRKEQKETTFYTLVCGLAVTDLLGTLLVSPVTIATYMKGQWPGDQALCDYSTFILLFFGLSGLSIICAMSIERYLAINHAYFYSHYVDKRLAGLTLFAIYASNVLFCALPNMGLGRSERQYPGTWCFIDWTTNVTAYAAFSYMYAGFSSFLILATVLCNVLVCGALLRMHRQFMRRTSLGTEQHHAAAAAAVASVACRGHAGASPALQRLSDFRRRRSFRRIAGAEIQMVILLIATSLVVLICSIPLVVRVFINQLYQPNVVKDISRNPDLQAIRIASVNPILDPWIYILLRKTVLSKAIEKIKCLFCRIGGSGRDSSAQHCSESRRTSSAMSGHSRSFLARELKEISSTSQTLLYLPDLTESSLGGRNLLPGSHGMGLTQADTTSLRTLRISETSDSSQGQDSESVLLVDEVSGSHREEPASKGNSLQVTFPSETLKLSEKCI

Usually Ki stands for a measure of affinity in units of concentration, obtained from inhibition or displacement. Read a high Ki as weaker binding. On to `CC(C(=O)Nc1ccccc1CCCC(=O)O)c1cccc2ccccc12` (stereo not shown) [Example 2, 4-[2-[2-(1-naphthyl)propanoylamino]phenyl]butanoic acid], for which the Ki was above 10 µM at mouse EP1 receptor, above 10 µM on mouse EP2 receptor, 2.4 µM at mouse EP3α receptor and 0.3 µM on mouse EP4 receptor.
